Our source for the inhibition and IC50 values is patent publication US12617777B2, “GPR84 antagonists and uses thereof” (Liminal BioSciences Limited, priority 2021, dated 2026).

Structures are written as SMILES.

This test addresses T1, human GPR84 receptor (Homo sapiens, UniProt Q9NQS5).
T1 construct: host or cells: HEK293, transient transfection
As to the kind of experiment: Gαi biosensor BRET assay in HEK293 cells (antagonism of ZQ-16). The class given is cell-based. Conditions: for inhibition at 10 µM: HEK293, single concentration 10 μM (designated F); for inhibition at 2 µM: HEK293, single concentration 2 μM (designated A); for IC50: HEK293 cells, antagonism of 200 nmol/L ZQ-16; for inhibition at 25 µM: HEK293, single concentration 25 μM (designated I). From the text: Background—The following assays can be used for determination of GPR84 activation in living HEK293 cells. The Gai BRET biosensor (Gagnon et al., 2018; Gales et al., 2006. Nat StructMol Biol. 13, 778-86; Saulieres et al., 2012. Nat Chem Biol. 8, 622-30) allows to directly monitor GPR84-mediated activation of Gai. The Gai biosensor consists of a Rluc8-tagged Gαi2 subunit, a GFP10-tagged Gγ2 subunit, and an untagged Gβ1. Agonist stimulation and GPR84 activation triggers a physical separation between the RLuc8-Gαi donor and the GFP10-Gγ2 acceptor, resulting in a decrease in BRET signal whose amplitude is correlated to ligand efficacy (Gales et al., 2006). Moreover, signaling functions of GPCRs are tightly regulated by endocytosis, the targeting of receptors to endosomes and their sorting to lysosomes or recycling to the plasma membrane. The early endosomes (EEs) trafficking assay (Namkung et al., 2016. Nat Commun. 7, 12178) uses Rluc8-tagged GPR84 and Renilla GFP (rGFP) attached to the FYVE domain from human endofin/zinc finger FYVE domain-containing protein 16, which binds phosphatidylinositol 3-phosphate in EEs. Agonist stimulation of GPR84-Rluc8 leads to trafficking of the receptor to EEs, and ensuing increase of the donor concentration relative to the rGFP-FYVE acceptor anchored in the same cellular compartment, and thus results in an increase in BRET signal.
Plasmids—The cDNA clones for human GPR84 receptor, human Gai2, Gp1, and Gy2 were obtained from the cDNA Resource Center (www.cdna.org). GFP10 (F64L, S147P, S202F and H231L variant of Aequorea victoria Green Fluorescent Protein) gBlocks gene fragments (Integrated DNA Technologies, IA) and linker were inserted in frame at the N-terminus of human Gγ2. Rluc8 (A55T, C124A, S130A, K136R, A143M, M185V, M253L, and S287L variant of the Renilla renformis luciferase) gBlocks gene fragment was inserted with linkers in frame in between residues 91 and 92 of Gai2 or at the C-terminus of GPR84. The FYVE domain from human endofin (residues Q739 to K806) attached in frame at the C terminus of a humanized Renilla GFP (rGFP), were synthesized as gBlocks gene fragments.
Bioluminescence Resonance Energy Transfer (BRET) Measurement—HEK293 cells were transfected with GPR84-Rluc8 and rGFP-FYVE for the EEs trafficking biosensor or with GPR84, Gαi2-Rluc8, GFP10-Gγ2, and Gβ1 for the Gαi biosensor. The following day, transiently transfected cells were seeded in 96-well white clear bottom microplates coated with poly-D-lysine and left in culture for 24 hours. Cells were washed once with Tyrode's buffer (140 mmol/L NaCl, 1 mmol/L CaCl2, 2.7 mmol/L KCl, 0.49 mmol/L MgCl2, 0.37 mmol/L NaH2PO4, 5.6 mmol/L glucose, 12 mmol/L NaHCO3, and 25 mmol/L HEPES, pH 7.5) before performing assays in Tyrode's buffer. Test compounds were incubated with cells for 5 (Gαi) or 15 (EEs) minutes at 37° C. before addition of 200 nmol/L of the GPR84 agonist ZQ-16 (2-(Hexylthio)-6-hydroxy-4(3H)-pyrimidinone) for 5 minutes at room temperature (Gαi) or 30 minutes at 37° C. (EEs). The Rluc8 substrate coelenterazine 400A (Prolume, Lakeside, AZ) was added at a final concentration of 5 μmol/L and BRET readings were collected using an Infinite M1000 microplate reader (Tecan, Morrisville, NC). BRET^2 readings between Rluc8 and GFP10 or rGFP were collected by sequential integration of the signals detected in the 370 to 450 nm (Rluc8) and 510 to 540 nm (GFP10, rGFP) windows. The BRET signal was calculated as the ratio of light emitted by acceptor (GFP10, rGFP) over the light emitted by donor (Rluc8). The values were corrected to net BRET by subtracting the background BRET signal obtained in cells transfected with Rluc8 constructs alone. Ligand-promoted net BRET values were calculated by subtracting vehicle-induced net BRET from ligand-induced net BRET.

T1 sequence (Q9NQS5 whole entry): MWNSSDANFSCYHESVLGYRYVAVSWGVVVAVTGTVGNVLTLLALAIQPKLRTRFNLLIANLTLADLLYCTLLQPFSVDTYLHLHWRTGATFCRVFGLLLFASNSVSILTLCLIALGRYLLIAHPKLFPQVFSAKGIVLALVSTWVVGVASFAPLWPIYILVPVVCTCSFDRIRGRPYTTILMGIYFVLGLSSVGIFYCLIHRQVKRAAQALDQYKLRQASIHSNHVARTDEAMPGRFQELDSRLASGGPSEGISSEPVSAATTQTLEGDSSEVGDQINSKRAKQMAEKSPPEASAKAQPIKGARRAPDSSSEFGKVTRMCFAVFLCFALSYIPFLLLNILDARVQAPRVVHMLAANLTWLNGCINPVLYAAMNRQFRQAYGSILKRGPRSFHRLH

Regarding `Cc1cc(N2CC(C)(C)C2)cnc1-c1cn(CC2OCC(C)(C)CO2)cn1` [Compound I-726], the inhibition at 10 µM was more than 75%.

`CC(C)c1cc(C#CCN2CC(C)(C)C2)cnc1-c1cn(CC2OCC(C)(C)CO2)nn1` [Compound I-727] registered an inhibition at 2 µM of more than 75% and a half-inhibitory concentration (IC50) of 300 to 1000 nM. For the molecule `Cc1cc(N2CCN(C(=O)c3ccccc3)CC2)ccc1-c1cn(CC2CCCCO2)nn1` (centres unmarked) [Compound I-236], the inhibition at 10 µM is 50 to 75% and the 50% inhibitory concentration (IC50) was 1000 to 3000 nM.

`CC1(C)COC(Cn2cc(-c3ncc(C#CC4CC4)cc3CC(F)(F)F)nn2)OC1` [Compound I-750]: the inhibition at 10 µM is more than 75% and the IC50 was not above 300 nM. Turning to `Cc1cc(N2CCC(O)CC2)ccc1-c1cn(CC2CCCCO2)nn1` (centres unmarked) [Compound I-449], the inhibition at 10 µM is 25 to 50%. In turn, `C=C(c1cncc(C#CC2CC2)c1)c1cn(CC2CCCCO2)nn1` (centres unmarked) [Compound I-427] registered an inhibition at 10 µM of 25 to 50% and an IC50 of more than 3000 nM. `COCC1CN(c2ccc(-c3cn(CC4OCC(C)(C)CO4)nn3)c(N(C)C)c2)C1` [Compound I-755]: the inhibition at 10 µM was more than 75%. The same measure, in the same setting: to `C(#CC1CC1)c1ccc2c(c1)CCc1nnn(CC3CCCCO3)c1-2` (centres unmarked) [Compound I-305] belongs not above 25%. In the case of `Cc1ccc(-c2ccc(-c3cn(CC4CCCCO4)nn3)cc2)cn1` (centres unmarked) [Compound I-39], the inhibition at 25 µM was more than 75% and the 50% inhibitory concentration (IC50) was more than 3000 nM. Turning to `CCn1cc(-c2ccc(-c3cn(CC4CCCCO4)nn3)c(C)c2)cn1` (centres unmarked) [Compound I-194], the inhibition at 10 µM was not above 25%. On the same count and under the same terms, as for `c1ccc(COc2ccc3c(c2)CCc2cnn(CC4CCCCO4)c2-3)cc1` (centres unmarked) [Compound I-331], the figure is not above 25%. As to `CCOCC#Cc1cnc(-c2cn(CC3OCC(C)(C)CO3)nn2)c(OC2CC2)c1` [Compound I-819], the inhibition at 10 µM was more than 75% and the 50% inhibitory concentration (IC50) is not above 300 nM. As to `Cc1cn(CC2CCCCO2)nc1-c1ccc(C#CC2CC2)cc1` (centres unmarked) [Compound I-316], the inhibition at 25 µM was not above 25%. With `Cc1cc(F)c(C#CC2CC2)cc1-c1cn(CC2CCCCO2)nn1` (centres unmarked) [Compound I-249], the inhibition at 10 µM was in the range of 50 to 75%. The molecule `COC(=O)N1CCCCC1Cn1cc(-c2ccc(C#CC3CC3)cc2C)nn1` (centres unmarked) [Compound I-190] registered an inhibition at 10 µM not above 25%.

The molecule `C[C@@H]1Cc2oc(C(=O)NC[C@@H]3COCCO3)c(C(F)(F)F)c2-c2nn(CC3CCN(C(=O)C4CC4)CC3)cc21` [Compound I-787] registered an inhibition at 10 µM not above 25% and an IC50 of 300 to 1000 nM. `Cc1ccc(C#CC2CC2)cc1-c1cn(Cc2ncccn2)nn1` [Compound I-293]: the inhibition at 2 µM was more than 75%.

Regarding `CN(C)c1cc(N2CCOCC2)ccc1-c1cn(CC2OCC(C)(C)CO2)nn1` [Compound I-863], the inhibition at 2 µM is more than 75%. Molecule `Cc1cc(N2CCN(Cc3ccncc3)CC2)ccc1-c1cn(CC2CCCCO2)nn1` (centres unmarked) [Compound I-549] displayed an inhibition at 10 µM of 50 to 75% and an IC50 of 1000 to 3000 nM. `Cc1cc(N2CC(C)(C)C2)ccc1-c1cn(CC2CCCCO2)nn1` (centres unmarked) [Compound I-864] registered an inhibition at 10 µM of 25 to 50% and an IC50 of 300 to 1000 nM. Take `Cc1cc(C#CC2CC2)ccc1-c1nnn(C[C@H]2CCCCO2)c1C` [Compound I-45]: for the setting “HEK293, single concentration 12.5 μM (designated G)”, the inhibition at 12.5 µM fell in the range of 25 to 50%. For the molecule `Cc1cc(N2CC(C)(CO)C2)ccc1-c1cn(CC2CCCCO2)nn1` (centres unmarked) [Compound I-263], the inhibition at 10 µM is more than 75%. In the case of `CC(C)Oc1cc(C#CC2CC(F)(F)C2)cnc1-c1cn(CC2CCCCO2)nn1` (centres unmarked) [Compound I-649], the inhibition at 2 µM is more than 75% and the half-inhibitory concentration (IC50) fell in the range of 1000 to 3000 nM. `Cc1cc(C#CC2CC2)cnc1-c1cn(CC2OCC(C)(C)O2)nn1` (centres unmarked) [Compound I-601] showed an inhibition at 10 µM not above 25%. The molecule `Cc1cc(C#CC2CC(F)(F)C2)ccc1-c1cn(CC2OCC(C)(C)CO2)nn1` [Compound I-662] displayed an inhibition at 10 µM of more than 75% and a half-maximal inhibitory concentration (IC50) of more than 3000 nM. As for `C(#CC1CC1)c1csc(-c2cn(CC3CCCCO3)nn2)c1` (centres unmarked) [Compound I-242], the inhibition at 10 µM was not above 25%.

`CNC(C)(C)COc1ccc(-c2cn(CC3CCCCO3)nn2)c(C)c1` (centres unmarked) [Compound I-288] showed an inhibition at 10 µM of 25 to 50%. As for `Cc1cc(N2CC3(CCNC3)C2)ccc1-c1cn(CC2CCCCO2)nn1` (centres unmarked) [Compound I-167], the inhibition at 10 µM was not above 25%. Take `CCc1cc(C#CCN(C)CC2CC2)cnc1-c1cn(CC2CCCCO2)nn1` (centres unmarked) [Compound I-276]: the inhibition at 10 µM is more than 75%. In turn, `COCC(=O)N1CCCCC1Cn1cc(-c2ccc(C#CC3CC3)cc2C)nn1` (centres unmarked) [Compound I-192] displayed an inhibition at 10 µM not above 25%. Consider `Cc1cc(N2CCN(Cc3ccncn3)CC2)ccc1-c1cn(CC2CCCCO2)nn1` (centres unmarked) [Compound I-565], for which the inhibition at 10 µM was 50 to 75%. Still for that read-out and setting: as for `Cc1cc(N2CCC(Cc3ccccn3)CC2)cnc1-c1cn(CC2CCCCO2)nn1` (centres unmarked) [Compound I-503], the figure is more than 75%.

`CC1(C)COC(Cn2cc(-c3ccc(C#CCN4CC(C)(C)C4)cc3OC3CC3)nn2)OC1` [Compound I-788] showed an inhibition at 10 µM of more than 75% and an IC50 not above 300 nM. `Cc1c(-c2ccc(C#CCNc3ccccc3)cc2)nnn1CC1CCCCO1` (centres unmarked) [Compound I-235] came in with an inhibition at 10 µM of 25 to 50%. Molecule `CC(C)Oc1cc(N2CC(C)(C)C2)cnc1-c1cn(CC2OCC(C)(C)CO2)nn1` [Compound I-664] displayed an inhibition at 10 µM of more than 75% and an IC50 not above 300 nM. The molecule `Cc1cc(OC2CN(Cc3ccccn3)C2)ccc1-c1cn(CC2CCCCO2)nn1` (centres unmarked) [Compound I-514] registered an inhibition at 2 µM not above 25%. Turning to `Cc1cc(N2CCN(Cc3cnccn3)CC2)ccc1-c1cn(CC2CCCCO2)nn1` (centres unmarked) [Compound I-577], the inhibition at 10 µM was in the range of 25 to 50%. `CC(C)OCC1(C)CN(c2ccc(-c3cn(CC4OCC(C)(C)CO4)nn3)c(N(C)C)c2)C1` [Compound I-754] gave an inhibition at 10 µM of more than 75% and an IC50 of 300 to 1000 nM. For `C(#CC1CC1)c1ccc(-c2cn(CC3CCCCO3)nn2)c(N2CCC2)c1` (centres unmarked) [Compound I-199], the inhibition at 10 µM is not above 25%. Same read-out and setting: as for `Cc1cc(C#CCN2CC(C)(C)C2)cnc1-c1cn(CC2Oc3ccccc3O2)nn1` [Compound I-627], the figure is more than 75%; as for `COC(=O)C1CCCN1CC#Cc1ccc(-c2cn(CC3CCCCO3)nn2)c(C)c1` (centres unmarked) [Compound I-233], 50 to 75%. As for `Cc1ccc(-c2ccc(-c3cn(C[C@H]4CCCO4)nn3)cc2)cn1` [Compound I-31], the inhibition at 25 µM is not above 25%.

Turning to `O=c1oc(CC2CCCCO2)nn1-c1ccc(C#CC2CC2)cc1` (centres unmarked) [Compound I-11], the inhibition at 25 µM was 25 to 50%.

In the case of `Cc1cc(C#CC2CC2)ccc1-c1cn(Cc2nccn2C)nn1` [Compound I-517], the inhibition at 10 µM was not above 25%. Molecule `CC1(C)COC(Cn2cc(-c3ncc(C#CC4CC4)cc3OC3CC3)nn2)OC1` [Compound I-702] yielded an inhibition at 2 µM of more than 75% and an IC50 not above 300 nM. On to `Cc1cc(C2CC2)cnc1-c1cn(CC2OCC(C)(C)CO2)nn1` [Compound I-871], for which the inhibition at 10 µM was in the range of 25 to 50%. `CN(C)CC#Cc1ccc(-c2cn(CC3CCCCO3)nn2)cc1` (centres unmarked) [Compound I-47] registered an inhibition at 25 µM not above 25%.
